Assay results published in patent US7534444B2, “Molecular mimetics of meningococcal B epitopes which elicit functionally active antibodies” (priority 2001, dated 2009).
Ends that are not written are not given here.

B1: rGNA33: recombinant GNA33 of strain 2996, soluble protein without signal and lipid modification sequences (protein)
chain: MKKYLFRAALCGIAAAILAACQSKSIQTFPQPDTSVINGPDRPVGIPDPAGTTVGGGGAVYTVVPHLSLPHWAAQDFAKSLQSFRLGCANLKNRQGWQDVCAQAFQTPVHSVQAKQFFERYFTPWQVAGNGSLAGTVTGYYEPVLKGDDRRTAQARFPIYGIPDDFISVPLPAGLRSGKALVRIRQTGKNSGTIDNTGGTHTADLSQFPITARTTAIKGRFEGSRFLPYHTRNQINGGALDGKAPILGYAEDPVELFFMHIQGSGRLKTPSGKYIRIGYADKNEHPYVSIGRYMADKGYLKLGQTSMQGIKAYMQQNPQRLAEVLGQNPSYIFFRELTGSSNDGPVGALGTPLMGEYAGAVDRHYITLGAPLFVATAHPVTRKALNRLIMAQDTGSAIKGAVRVDYFWGYGDEAGELAGKQKTTGYVWQLLPNGMKPEYRP

Experiments:
anti-GNA33 mAb 25 = assay: Peptide binding assay with cellulose-bound spot-synthesised peptides; set-up: species or system mouse; details: for Dye Units (binding of anti-GNA33 mAb 25): mAb 25 6 μg/ml; for Relative Binding (of anti-GNA33 mAb 25): alanine substitution of PorA loop 4 VR type P1.2-2 10-mer
Experimental: Peptide spot synthesis was carried out on amino-PEG-cellulose membranes (ABIMED, Langerfeld, Germany) using a model ASP 222 automated spot synthesizer (ABIMED) and diisopropylcarbodiimide (DIC)/N-hydroxybenzotriazole (HOBt) activation (Frank and Overwin, Methods Mol. Biol. (1996) 66:149-169). In situ-prepared 0.2 M HOBt esters of fluorenylmethoxycarbonyl (Fmoc)-amino acid derivatives were used for the coupling reaction. […] After the final cycle, all the peptides were N-terminally acetylated with 2% acetic anhydride. At the end of the synthesis, the side-chain protecting groups were removed using a mixture of trifluoroacetic acid/triisobutylsilane/water/dichloromethane (50/3/2/45).
Cellulose-bound peptides were soaked in ethanol to prevent hydrophobic interactions between the peptides. Non-specific binding was blocked by incubating cellulose sheets overnight at 4° C. with 10 ml of 2% casein in Tris buffered saline (TBS: 50 mM Tris-HCl, 137 mM NaCl, […], pH 7.0), containing 0.05% TWEEN® 20 (T-TBS). The sheets were incubated for 2 hr at 37° C. with the anti-GNA33 mAb 25 (6 μg/ml) or an anti-PorA 1.2 mAb diluted 1:100 in T-TBS blocking buffer. Alkaline phosphatase-conjugated goat anti-mouse IgG (BioRad) was then added at 1:3000 dilution in T-TBS blocking buffer for 1 hr at 37° C. Sheets were washed three times with T-TBS and detection of binding was achieved by incubating the sheets with bromo-4-chloro-3-indolyl-phosphate (BCIP) (Sigma, Steinheim, Germany) and […] in substrate buffer (100 mM Tris, pH 8.9, 100 mM NaCl, 2 mM MgCl2). Quantitative evaluation of the signal was obtained using a Umax Speedy II 2200 optical scanner.

[1] = target: PorA of N. meningitidis strain M5545 (B:NT:P1.5,2) (Neisseria meningitidis serogroup B strain M5545); assay: cell-based or functional assay
[2] = target: PorA of N. meningitidis strain M5682 (B:2a:P1.5,2) (Neisseria meningitidis serogroup B strain M5682); assay: cell-based or functional assay
[3] = target: PorA of N. meningitidis strain 2996 (B:2b:P1.5,2) (Neisseria meningitidis serogroup B strain 2996); assay: cell-based or functional assay
[4] = target: PorA of N. meningitidis strain BZ232 (B:NT:P1.2) (Neisseria meningitidis serogroup B strain BZ232); assay: cell-based or functional assay
[5] = target: PorA of N. meningitidis strain M5954 (C:2a:P1.2) (Neisseria meningitidis serogroup C strain M5954); assay: cell-based or functional assay
[6] = target: PorA of N. meningitidis strain 8047 (B:2b:P1.5,2) (Neisseria meningitidis serogroup B strain 8047); assay: cell-based or functional assay
[7] = target: PorA of N. meningitidis strain M986 (B:2a:P1.5,2) (Neisseria meningitidis serogroup B strain M986); assay: cell-based or functional assay
[8] = target: PorA of N. meningitidis strain NMB (B:2b:P1.5,2) (Neisseria meningitidis serogroup B strain NMB); assay: cell-based or functional assay
[9] = target: PorA of N. meningitidis strain M3735 (B:NT:P1.5,2) (Neisseria meningitidis serogroup B strain M3735); assay: cell-based or functional assay
[10] = system: encapsulated MenB strain 2996; details: mice immunized; measured against encapsulated MenB strain 2996; cited from earlier work
[11] = system: P1.2 epitope of PorA loop 4; assay: Immunization of CD1 mice with rGNA33 in Freund's adjuvant; assay type: in vivo; details: recombinant protein simply mixed with Freund's adjuvant, without renaturation
Experimental: In order to prepare antisera against GNA33, 20 μg of purified HT-GNA33 or untagged rGNA33 was used to immunize six-week old CD1 female mice (four to ten mice per group). The mice were obtained from Charles River (Italia S.P.A., Calco, Italy, or Hollister, Calif.). The recombinant protein was given i.p, together with complete Freund's adjuvant (CFA) for the first dose and incomplete Freund's adjuvant (IFA) for the second (day 21) and third (day 35) booster doses. Blood samples were taken on days 34 and 49.

[12] = overlapping decapeptides from GNA33
[13] = overlapping decapeptides from loop 4 of PorA P1.2 (strain 2996)

Molecule	Dye Units (binding of anti-GNA33 mAb 25) (anti-GNA33 mAb 25; [12]) [Dye Units]	Dye Units (binding of anti-GNA33 mAb 25) (anti-GNA33 mAb 25; [13]) [Dye Units]	also measured
AFQTPVHSFQ	24		
AHFVQQTPQS (Ac-AHFVQQTPQS)		14	
AQAFQTPVHS	30		
DVSAQAFQTP	23		
FQTPVHSFQA	22		
FVQQTPQSQP (Ac-FVQQTPQSQP)		9	
HFVQQTPQSQ (Ac-HFVQQTPQSQ)		15	
PAA FVQ QTP Q (Ac-PAAFVQQTPQ)			Relative Binding (of anti-GNA33 mAb 25) (anti-GNA33 mAb 25): 8
PAH AVQ QTP Q (Ac-PAHAVQQTPQ)			Relative Binding (of anti-GNA33 mAb 25) (anti-GNA33 mAb 25): 1
PAH FAQ QTP Q (Ac-PAHFAQQTPQ)			Relative Binding (of anti-GNA33 mAb 25) (anti-GNA33 mAb 25): 4
PAH FVA QTP Q (Ac-PAHFVAQTPQ)			Relative Binding (of anti-GNA33 mAb 25) (anti-GNA33 mAb 25): 2
PAH FVQ ATP Q (Ac-PAHFVQATPQ)			Relative Binding (of anti-GNA33 mAb 25) (anti-GNA33 mAb 25): 0
PAH FVQ QAP Q (Ac-PAHFVQQAPQ)			Relative Binding (of anti-GNA33 mAb 25) (anti-GNA33 mAb 25): 0
PAH FVQ QTA Q (Ac-PAHFVQQTAQ)			Relative Binding (of anti-GNA33 mAb 25) (anti-GNA33 mAb 25): 0
PAHFVQQTPQ (Ac-PAHFVQQTPQ)		10	
PAK FVQ QTP A (PAHFVQQTPA)			Relative Binding (of anti-GNA33 mAb 25) (anti-GNA33 mAb 25): 2

Molecule	Dye Units (binding of anti-GNA33 mAb 25) (anti-GNA33 mAb 25; [12]) [Dye Units]	Dye Units (binding of anti-GNA33 mAb 25) (anti-GNA33 mAb 25; [13]) [Dye Units]	also measured
PGH FVQ QTP Q (Ac-PGHFVQQTPQ)			Relative Binding (of anti-GNA33 mAb 25) (anti-GNA33 mAb 25): 8
QAFQTPVHSF	30		
QDVSAQAFQT	0		
QQTPQSQPTL (Ac-QQTPQSQPTL)		0	
QTPQSQPTLV (Ac-QTPQSQPTLV)		2	
QTPVHSFQAK	19		
SAQAFQTPVH	29		
TPAHFVQQTP		8	
TPQSQPTVP		2	
TPVHSFQAKQ	2		
VQQTPQSQPT (Ac-VQQTPQSQPT)		4	
VSAQAFQTPV	27		
YTPAHFVQQT (Ac-YTPAHFVQQT)		0	
meningococcal Por A P1.2-specific subtyping mAb (MN16C13F4, subclass IgG2a) (antibody)			BC50, human complement [1]: < 0.5 µg/mL; BC50, human complement [2]: < 0.5 µg/mL; BC50, human complement [3]: < 0.5 µg/mL; BC50, human complement [4]: < 0.5 µg/mL; BC50, human complement [5]: < 0.5 µg/mL; BC50, human complement [6]: < 0.5 µg/mL; BC50, human complement [7]: < 0.5 µg/mL; BC50, human complement [8]: < 0.5 µg/mL; BC50, human complement [9]: < 0.5 µg/mL
B1			serum bactericidal antibody titers [10]: high; antibody elicited by immunization [11]: elicited bactericidal antibody
